ChEMBL document CHEMBL5500371, “Arginine and tryptophan-rich dendritic antimicrobial peptides that disrupt membranes for bacterial infection in vivo” (Eur J Med Chem, 2024)
Calls of active or inactive are those of the source. The calls are words filed in the database; no cut-off is given here. Where a SMILES comes first, the peptide text is derived from it. Side-chain parts run from the residue outwards.

Assays:
[1] = tested on: Escherichia coli; test: Additive antibacterial activity against Escherichia coli ATCC 25922 assessed as fractional inhibitory concentration index at 0.25 to 4 times MIC incubated for 20 hrs in presence of kanamycin by checkerboard assay; format: functional
[2] = tested on: Staphylococcus aureus; test: Antibacterial activity against Staphylococcus aureus ATCC 25923 assessed as inhibition of bacterial growth incubated for 20 hrs in presence of NaCl by broth microdilution method (reference value: 16 microM); format: functional
[3] = tested on: Escherichia coli; test: Resistant development in Escherichia coli assessed as increase in MIC at sub-MIC in presence of gentamicin measured after 20 passages; format: functional, organism-based
[4] = tested on: Staphylococcus aureus; test: Antibacterial activity against Staphylococcus aureus ATCC 25923 assessed as inhibition of bacterial growth upto 20 ug/ml pretreated with chymotrypsin for 6 hrs and measured after 18 hrs by absorbance based method; format: functional, organism-based; details: dose <= 20.0 µg/ml, time 24.0 hrs
[5] = Systemic toxicity in male BALB/c mouse assessed as lung inflammatory cell infiltration at 109.31 mg/kg, ip administered as single dose by H and E staining based analysis; format: organism-based; details: in vivo
[6] = tested on: Escherichia coli; test: Antibacterial activity against Escherichia coli ATCC 25922 assessed as inhibition of bacterial growth incubated for 20 hrs in presence of MgCl2 by broth microdilution method (reference value: 16 microM); format: functional
[7] = tested on: Staphylococcus aureus; test: Additive antibacterial activity against rifampicin resistant Staphylococcus aureus ATCC 25923 assessed as fractional inhibitory concentration index at 0.25 to 4 times MIC incubated for 20 hrs in presence of rifampicin by checkerboard assay; format: functional
[8] = tested on: Escherichia coli; test: Antibacterial activity against Escherichia coli ATCC 25922 assessed as inhibition of bacterial growth incubated for 20 hrs in presence of KCl by broth microdilution method (reference value: 16 microM); format: functional
[9] = tested on: Lipopolysaccharide (LPS); test: Binding affinity to LPS (unknown origin) assessed as reduction in bacterial mortality at 2 times MIC preincubated with LPS for 1 hr followed by bacteria addition and measured after 18 hrs by microplate reader analysis; format: subcellular; details: time 19.0 hrs
[10] = tested on: Escherichia coli; test: Additive antibacterial activity against Escherichia coli ATCC 25922 assessed as fractional inhibitory concentration index at 0.25 to 4 times MIC incubated for 20 hrs in presence of gentamicin by checkerboard assay; format: functional
[11] = tested on: Escherichia coli; test: […] activity against Escherichia coli ATCC 25922 infected in male BALB/c pulmonary infection model assessed as reduction in liver hemorrhage at 5 to 10 mg/kg, ip administered at 3 and 12 hrs post infection and measured 24 hrs post infection by H and E staining based analysis; format: functional, organism-based; details: dose 5-10 mg/kg, time 12-21 hrs
[12] = tested on: Escherichia coli; test: Antibacterial activity against Escherichia coli ATCC 25922 assessed as inhibition of bacterial growth incubated for 20 hrs in presence of NaCl by broth microdilution method (reference value: 16 microM); format: functional
[13] = tested on: Escherichia coli; test: Additive antibacterial activity against Escherichia coli ATCC 25922 assessed as fractional inhibitory concentration index at 0.25 to 4 times MIC incubated for 20 hrs in presence of rifampicin by checkerboard assay; format: functional
[14] = tested on: Staphylococcus aureus; test: Bactericidal activity against Staphylococcus aureus ATCC 25923 assessed as elimination of bacteria at 2 times MIC measured after >6 hrs by time kill assay; format: functional, organism-based
[15] = tested on: Escherichia coli; test: Antibacterial activity against Escherichia coli ATCC 25922 assessed as inhibition of bacterial growth incubated for 20 hrs in presence of FeCl3 by broth microdilution method (reference value: 4 microM); format: functional, organism-based
[16] = tested on: Staphylococcus aureus; test: Additive antibacterial activity against Staphylococcus aureus ATCC 25923 assessed as fractional inhibitory concentration index at 0.25 to 4 times MIC incubated for 20 hrs in presence of rifampicin by checkerboard assay; format: functional, organism-based
[17] = tested on: Cell membrane; test: Induction of cell membrane damage in Staphylococcus aureus assessed as PI uptake at 2 times MIC measured after 2 hrs by PI dye based flow cytometry analysis (reference value: 28.8%); format: cell membranes
[18] = tested on: Escherichia coli; test: Antibacterial activity against Escherichia coli ATCC 25922 assessed as inhibition of bacterial growth incubated for 20 hrs in presence of ZnCl2 by broth microdilution method (reference value: 4 microM); format: functional, organism-based
[19] = tested on: Escherichia coli; test: Antibacterial activity against Escherichia coli ATCC 25922 assessed as inhibition of bacterial growth incubated for 20 hrs in presence of MgCl2 by broth microdilution method (reference value: 4 microM); format: functional, organism-based
[20] = tested on: Cell membrane; test: Induction of cytoplasmic membrane depolarization in Staphylococcus aureus assessed as increase in fluorescence intensity at 0.5 to 4 times MIC measured upto 13 mins by DISC3-5 dye based fluorescence analysis
[21] = tested on: Escherichia coli; test: Antibacterial activity against Escherichia coli ATCC 25922 assessed as inhibition of bacterial growth incubated for 20 hrs in presence of KCl by broth microdilution method (reference value: 4 microM); format: functional, organism-based
[22] = tested on: Staphylococcus aureus; test: Resistant development in Staphylococcus aureus assessed as increase in MIC at sub-MIC measured after 20 passages; format: functional, organism-based
[23] = tested on: Escherichia coli; test: Synergistic antibacterial activity against Escherichia coli ATCC 25922 assessed as fractional inhibitory concentration index at 0.25 to 4 times MIC incubated for 20 hrs in presence of rifampicin by checkerboard assay; format: functional, organism-based
[24] = tested on: Escherichia coli; test: Antibacterial activity against Escherichia coli ATCC 25922 assessed as inhibition of bacterial growth incubated for 20 hrs in presence of NaCl by broth microdilution method (reference value: 4 microM); format: functional, organism-based
[25] = tested on: Escherichia coli; test: Synergistic antibacterial activity against Escherichia coli ATCC 25922 assessed as fractional inhibitory concentration index at 0.25 to 4 times MIC incubated for 20 hrs in presence of vancomycin by checkerboard assay; format: functional, organism-based
[26] = tested on: Escherichia coli; test: […] activity against Escherichia coli ATCC 25922 infected in male BALB/c pulmonary infection model assessed as reduction in inflammatory cell infiltration at 10 mg/kg, ip administered at 3 and 12 hrs post infection and measured 24 hrs post infection by H and E staining based analysis; format: functional, organism-based; details: time 12-21 hrs
[27] = tested on: Staphylococcus aureus; test: Antibacterial activity against Staphylococcus aureus ATCC 25923 assessed as inhibition of bacterial growth incubated for 20 hrs in presence of ZnCl2 by broth microdilution method (reference value: 8 microM); format: functional
[28] = tested on: Staphylococcus aureus; test: Antibacterial activity against Staphylococcus aureus ATCC 25923 assessed as inhibition of bacterial growth incubated for 20 hrs in presence of MgCl2 by broth microdilution method (reference value: 8 microM); format: functional
[29] = Systemic toxicity in male BALB/c mouse assessed as renal cell necrosis at 105.41 mg/kg, ip administered as single dose by H and E staining based analysis; format: organism-based; details: in vivo
[30] = Systemic toxicity in male BALB/c mouse assessed as hepatocyte hemorrhage at 105.41 mg/kg, ip administered as single dose by H and E staining based analysis; format: organism-based; details: hepatocytes
[31] = tested on: Escherichia coli; test: Antibacterial activity against Escherichia coli ATCC 25922 assessed as inhibition of bacterial growth incubated for 20 hrs in presence of ZnCl2 by broth microdilution method (reference value: 8 microM); format: functional
[32] = tested on: Escherichia coli; test: […] activity against Escherichia coli ATCC 25922 infected in male BALB/c pulmonary infection model assessed as reduction in bacterial colonies at 5 to 10 mg/kg, ip administered at 3 and 12 hrs post infection and measured 24 hrs post infection; format: functional, organism-based; details: dose 5-10 mg/kg, time 12-21 hrs
[33] = tested on: Escherichia coli; test: Antibacterial activity against Escherichia coli ATCC 25922 assessed as inhibition of bacterial growth incubated for 20 hrs in presence of NaCl by broth microdilution method (reference value: 8 microM); format: functional

With N=C(N)NCCC[C@H](NC(=O)[C@@H](N)CCCNC(=N)N)C(=O)NCCCC[C@H](NC(=O)[C@H](CCCNC(=N)N)NC(=O)[C@@H](N)CCCNC(=N)N)C(=O)N[C@@H](Cc1c[nH]c2ccccc12)C(=O)N[C@@H](Cc1c[nH]c2ccccc12)C(=O)N[C@@H](Cc1c[nH]c2ccccc12)C(=O)N[C@@H](Cc1c[nH]c2ccccc12)C(N)=O (H-RRK([Arg-Arg])WWWW-NH2) the “fractional inhibitory concentration index (FICI)” value [1] was 0.563, the MIC [2] was 16 µM and the Activity [3] was “inactive”. The Activity [4] was “Active”, the Activity [5] was “Non-Toxic” and the MIC [6] was 16 µM. The “fractional inhibitory concentration index (FICI)” value [7] was 0.563, the MIC [8] was 16 µM and the Activity [9] was “Active”. The “fractional inhibitory concentration index (FICI)” value [10] was 0.563, the Activity [11] was “Active” and the MIC [12] was 32 µM. For the same molecule, the “fractional inhibitory concentration index (FICI)” value [13] was 0.563.

In the case of POLYMYXIN B, the MIC [2] was 64 µM, the Activity [14] was 100% and the MIC [15] was 4 µM. It also gave a fractional inhibitory concentration index (FICI) [16] of 0.563, an Activity [17] of 76.2% and an MIC [18] of 8 µM. The MIC [19] was 2 µM, the Activity [20] was “inactive” and the MIC [21] was 4 µM. The Activity [22] was “inactive”, the fractional inhibitory concentration index (FICI) [23] was 0.313 and the MIC [24] was 4 µM. The fractional inhibitory concentration index (FICI) [25] was 0.313 and the Activity [26] was “inactive”.

For N=C(N)NCCC[C@H](NC(=O)[C@H](CCCNC(=N)N)NC(=O)[C@H](CCCNC(=N)N)NC(=O)[C@@H](N)CCCNC(=N)N)C(=O)N[C@@H](CCCCN)C(=O)N[C@@H](Cc1c[nH]c2ccccc12)C(=O)N[C@@H](Cc1c[nH]c2ccccc12)C(=O)N[C@@H](Cc1c[nH]c2ccccc12)C(=O)N[C@@H](Cc1c[nH]c2ccccc12)C(N)=O, the MIC [27] was 8 µM, the Activity [3] was “inactive” and the MIC [28] was 16 µM. For the same molecule, the Activity [29] was “Non-Toxic”, the Activity [30] was “Non-Toxic” and the MIC [31] was 8 µM. For the same molecule, the Activity [32] was “Active”, the Activity [9] was “Active” and the Activity [11] was “Active”. For the same molecule, the MIC [33] was 16 µM.
